{
  "source": "ChEMBL document CHEMBL3272053",
  "about": "“(exo, exo)-2-Aryltropane-3-carboxylic esters, hypoglycemic agents with accompanying analgesic activity” (J Med Chem, 1978)",
  "key": {"[1]": {"system": "Mus musculus", "assay": "Toxicity in Swiss-Webster mouse assessed as mortality at 75 mg/kg, sc", "type": "organism-based", "set-up": "dose 75 mg/kg, route subcutaneous", "settings": "in vivo"}, "[2]": {"system": "Rattus norvegicus", "assay": "Narcotic analgesic activity in fasted Sprague-Dawley rat at 35 mg/kg, po measured at 15 mins by D'Amour-Smith tail-flick test relative to control", "type": "functional"}, "[3]": {"system": "Rattus norvegicus", "assay": "Hypoglycemic activity in Sprague-Dawley rat assessed as reduction of blood glucose level at 9 mg/kg, po measured < 90 mins by glucagon-impaired glucose disposal test", "type": "functional, organism-based", "set-up": "dose 9 mg/kg"}, "[4]": {"system": "Mus musculus", "assay": "Analgesic activity in sc dosed Swiss-Webster mouse assessed as reduction of acetylcholine-induced writhing", "type": "functional", "settings": "Mus musculus, Swiss-Webster, sc; read-out: ED50"}, "[5]": {"system": "Rattus norvegicus", "assay": "Narcotic analgesic activity in fasted Sprague-Dawley rat at 35 mg/kg, po measured at 30 mins by D'Amour-Smith tail-flick test relative to control", "type": "functional"}, "[6]": {"system": "Rattus norvegicus", "assay": "Narcotic analgesic activity in fasted Sprague-Dawley rat at 35 mg/kg, po measured at 60 mins by D'Amour-Smith tail-flick test relative to control", "type": "functional"}, "[7]": {"system": "Rattus norvegicus", "assay": "Hypoglycemic activity in Sprague-Dawley rat assessed as reduction of blood glucose level at 9 mg/kg, po measured within 15 mins by glucagon-impaired glucose disposal test relative to control", "type": "functional", "set-up": "scale not given: the % may be the effect or the level left"}, "[8]": {"system": "Rattus norvegicus", "assay": "Toxicity in Sprague-Dawley rat assessed as convulsion at 35 mg/kg, po", "type": "organism-based", "set-up": "dose 35 mg/kg, route oral", "settings": "in vivo"}, "[9]": {"system": "Rattus norvegicus", "assay": "Hypoglycemic activity in Sprague-Dawley rat assessed as reduction of blood glucose level at 9 mg/kg, po by glucagon-impaired glucose disposal test in presence of microsomal enzyme inhibitor SKF 525-A", "type": "functional, organism-based", "set-up": "dose 9 mg/kg"}, "[10]": {"system": "Rattus norvegicus", "assay": "Analgesic activity in po dosed rat assessed as reduction of intraarterial bradykinin-induced pain response measured up to 120 mins", "type": "functional", "settings": "2 h"}, "[11]": {"system": "Mus musculus", "assay": "Analgesic activity in po dosed Swiss-Webster mouse assessed as reduction of acetylcholine-induced writhing", "type": "functional"}, "[12]": {"system": "Rattus norvegicus", "assay": "Hypoglycemic activity in glucose/glycogen loaded Sprague-Dawley rat assessed as reduction of blood glucose level at 87 mg/kg, po", "type": "functional, organism-based", "set-up": "dose 87 mg/kg"}, "[13]": {"system": "Rattus norvegicus", "assay": "Narcotic analgesic activity in po dosed fasted Sprague-Dawley rat measured at 60 mins by D'Amour-Smith tail-flick test", "type": "functional", "settings": "Rattus norvegicus, Sprague-Dawley, Tail, po, 1 h; read-out: ED50"}, "[14]": {"system": "Rattus norvegicus", "assay": "Hypoglycemic activity in Sprague-Dawley rat assessed as reduction of blood glucose level at 88 mg/kg, po by glucagon-impaired glucose disposal test relative to control", "type": "functional", "set-up": "scale not given: the % may be the effect or the level left"}, "[15]": {"system": "Rattus norvegicus", "assay": "Toxicity in Sprague-Dawley rat assessed as tremor at 120 mg/kg, sc", "type": "organism-based", "set-up": "dose 120 mg/kg, route subcutaneous", "settings": "in vivo"}, "[16]": {"system": "Mus musculus", "assay": "Toxicity in Swiss-Webster mouse assessed as hyperactivity at 75 mg/kg, sc", "type": "organism-based", "set-up": "dose 75 mg/kg, route subcutaneous", "settings": "in vivo"}, "[17]": {"system": "Rattus norvegicus", "assay": "Narcotic analgesic activity in fed Sprague-Dawley rat at 120 mg/kg, sc measured at 30 mins by D'Amour-Smith tail-flick test", "type": "functional", "settings": "route subcutaneous"}, "[18]": {"system": "Rattus norvegicus", "assay": "Hypoglycemic activity in glucose loaded Sprague-Dawley rat assessed as reduction of blood glucose level at 100 mg/kg, po after 30 mins relative to control", "type": "functional", "set-up": "scale not given: the % may be the effect or the level left"}, "[19]": {"system": "Rattus norvegicus", "assay": "Hypoglycemic activity in glucose loaded Sprague-Dawley rat assessed as reduction of blood glucose level at 100 mg/kg, po measured at 1.5 to 2 hrs", "type": "functional, organism-based", "set-up": "dose 100 mg/kg"}, "[20]": {"system": "Rattus norvegicus", "assay": "Hypoglycemic activity in glucose loaded Sprague-Dawley rat assessed as reduction of blood glucose level at 100 mg/kg, po measured at 1 hr", "type": "functional, organism-based", "set-up": "dose 100 mg/kg"}},
  "note": "The source made the active and inactive calls. No cut-off for these calls is given here.",
  "data": [
    {"smiles": "COC(=O)[C@H]1C[C@H]2CC[C@@H]3[C@H]1c1sccc1CN23.Cl", "values": [
      {"measurement": "Activity", "setting": "[1]", "value": "Toxic"},
      {"measurement": "Activity", "setting": "[2]", "value": 74, "unit": "%"},
      {"measurement": "Activity", "setting": "[3]", "value": "inactive"},
      {"measurement": "ED50", "setting": "[4]", "value": 1.5, "unit": "mg/kg"},
      {"measurement": "Activity", "setting": "[5]", "value": 14, "unit": "%"},
      {"measurement": "Activity", "setting": "[6]", "value": 12, "unit": "%"},
      {"measurement": "Activity", "setting": "[7]", "value": 43, "unit": "%"},
      {"measurement": "Activity", "setting": "[8]", "value": "Toxic"},
      {"measurement": "Activity", "setting": "[9]", "value": "Active"}
    ]},
    {"smiles": "COC(=O)[C@H]1CCCN(C)[C@H]1c1cccs1", "note": "(relative stereo)", "values": [
      {"measurement": "ED50", "setting": "[10]", "value": 111, "unit": "mg/kg"},
      {"measurement": "ED50", "setting": "[4]", "value": 3.8, "unit": "mg/kg"},
      {"measurement": "ED50", "setting": "[11]", "value": 11, "unit": "mg/kg"},
      {"measurement": "Activity", "setting": "[12]", "value": "inactive"},
      {"measurement": "ED50", "setting": "[13]", "value": 112, "unit": "mg/kg"}
    ]},
    {"smiles": "COC(=O)[C@H]1C[C@H]2CC[C@H]([C@H]1Cc1ccccc1)N2C.Cl", "values": [
      {"measurement": "Activity", "setting": "[14]", "value": 21, "unit": "%"},
      {"measurement": "Activity", "setting": "[15]", "value": "Toxic"},
      {"measurement": "ED50", "setting": "[4]", "value": 5.8, "unit": "mg/kg"},
      {"measurement": "Activity", "setting": "[16]", "value": "Toxic"},
      {"measurement": "Activity", "setting": "[17]", "value": "<20", "unit": "%"}
    ]},
    {"smiles": "COC(=O)[C@H]1C[C@H]2CC[C@@H]3[C@H]1c1cc(O)ccc1CN23", "values": [
      {"measurement": "Activity", "setting": "[18]", "value": 33, "unit": "%"},
      {"measurement": "Activity", "setting": "[19]", "value": "inactive"},
      {"measurement": "Activity", "setting": "[20]", "value": "inactive"}
    ]}
  ]
}
